Numbers after ± are expanded uncertainties.
Test: xn = mol fraction of the nth substance listed
Details: 101 kPa, Liquid; for speed of sound: Sing-around technique in a fixed-path interferometer; for viscosity: Capillary tube (Ostwald / Ubbelohde) method

NCCN [ethane-1,2-diamine] + CCCCO
Details | mass density [kg/m3] | speed of sound [m/s] | viscosity [mPa·s]
293.15 K, x1 = 0.0528 | 815.585 ± 0.45 | 1279.7 ± 0.9 | –
293.15 K, x1 = 0.1135 | 822.116 ± 0.45 | 1302.1 ± 0.9 | –
293.15 K, x1 = 0.1488 | 825.769 ± 0.44 | 1315.9 ± 0.9 | –
293.15 K, x1 = 0.214 | 832.273 ± 0.44 | 1341.7 ± 1 | –
293.15 K, x1 = 0.2602 | 836.674 ± 0.44 | 1360.5 ± 1 | –
293.15 K, x1 = 0.3286 | 842.718 ± 0.43 | 1387.1 ± 1 | –
293.15 K, x1 = 0.3985 | 848.216 ± 0.43 | 1414.5 ± 1.1 | –
293.15 K, x1 = 0.5036 | 856.28 ± 0.43 | 1456.5 ± 1.1 | –
293.15 K, x1 = 0.5965 | 863.365 ± 0.43 | 1494.7 ± 1.2 | –
293.15 K, x1 = 0.7081 | 872.153 ± 0.43 | 1543.9 ± 1.2 | –
293.15 K, x1 = 0.7931 | 879.359 ± 0.44 | 1584.7 ± 1.3 | –
293.15 K, x1 = 0.8504 | 884.315 ± 0.44 | 1613.6 ± 1.3 | –
293.15 K, x1 = 0.8979 | 888.772 ± 0.44 | 1639.1 ± 1.3 | –
293.15 K, x1 = 0.936 | 892.567 ± 0.44 | 1660.5 ± 1.3 | –
298.15 K, x1 = 0.0528 | 811.698 ± 0.46 | 1262.9 ± 0.9 | 2.609 ± 0.016
298.15 K, x1 = 0.1135 | 818.144 ± 0.45 | 1285 ± 0.9 | 2.591 ± 0.016
298.15 K, x1 = 0.1488 | 821.746 ± 0.45 | 1298.6 ± 0.9 | 2.584 ± 0.016
298.15 K, x1 = 0.214 | 828.164 ± 0.44 | 1324.3 ± 1 | 2.53 ± 0.016
298.15 K, x1 = 0.2602 | 832.509 ± 0.44 | 1342.9 ± 1 | 2.484 ± 0.016
298.15 K, x1 = 0.3283 | – | – | 2.412 ± 0.016
298.15 K, x1 = 0.3286 | 838.245 ± 0.44 | 1368.8 ± 1 | –
298.15 K, x1 = 0.3985 | 843.943 ± 0.44 | 1396.3 ± 1.1 | 2.327 ± 0.016
298.15 K, x1 = 0.5036 | 851.943 ± 0.44 | 1437.7 ± 1.1 | 2.184 ± 0.015
298.15 K, x1 = 0.5965 | 858.974 ± 0.44 | 1475.5 ± 1.1 | 2.03 ± 0.015
298.15 K, x1 = 0.7081 | 867.696 ± 0.44 | 1523.9 ± 1.2 | 1.842 ± 0.014
298.15 K, x1 = 0.7931 | 874.839 ± 0.44 | 1564.1 ± 1.3 | 1.697 ± 0.013
298.15 K, x1 = 0.8504 | 879.75 ± 0.45 | 1592.5 ± 1.3 | 1.604 ± 0.013
298.15 K, x1 = 0.8979 | 884.168 ± 0.45 | 1617.5 ± 1.3 | 1.538 ± 0.013
298.15 K, x1 = 0.936 | 887.932 ± 0.45 | 1638.7 ± 1.3 | 1.481 ± 0.012
303.15 K, x1 = 0.0528 | 807.785 ± 0.46 | 1245.9 ± 0.9 | 2.298 ± 0.015
303.15 K, x1 = 0.1135 | 814.153 ± 0.46 | 1267.9 ± 0.9 | 2.3 ± 0.015
303.15 K, x1 = 0.1488 | 817.703 ± 0.45 | 1281.4 ± 0.9 | 2.292 ± 0.015
303.15 K, x1 = 0.214 | 824.038 ± 0.45 | 1306.8 ± 1 | 2.245 ± 0.015
303.15 K, x1 = 0.2602 | 828.329 ± 0.45 | 1325.3 ± 1 | 2.213 ± 0.015
303.15 K, x1 = 0.3283 | – | – | 2.147 ± 0.015
303.15 K, x1 = 0.3286 | 833.896 ± 0.45 | 1350.9 ± 1 | –
303.15 K, x1 = 0.3985 | 839.656 ± 0.44 | 1378.1 ± 1.1 | 2.071 ± 0.014
303.15 K, x1 = 0.5036 | 847.599 ± 0.44 | 1419.1 ± 1.1 | 1.942 ± 0.014
303.15 K, x1 = 0.5965 | 854.57 ± 0.45 | 1456.3 ± 1.1 | 1.813 ± 0.013
303.15 K, x1 = 0.7081 | 863.224 ± 0.45 | 1504 ± 1.2 | 1.648 ± 0.013
303.15 K, x1 = 0.7931 | 870.306 ± 0.45 | 1543.5 ± 1.2 | 1.531 ± 0.012
303.15 K, x1 = 0.8504 | 875.173 ± 0.45 | 1571.4 ± 1.3 | 1.448 ± 0.012
303.15 K, x1 = 0.8979 | 879.552 ± 0.45 | 1596.1 ± 1.3 | 1.381 ± 0.012
303.15 K, x1 = 0.936 | 883.288 ± 0.45 | 1616.8 ± 1.3 | 1.334 ± 0.011
308.15 K, x1 = 0.0528 | 803.849 ± 0.47 | 1228.5 ± 0.9 | 2.001 ± 0.013
308.15 K, x1 = 0.1135 | 810.137 ± 0.46 | 1250.7 ± 0.9 | 2.009 ± 0.013
308.15 K, x1 = 0.1488 | 813.64 ± 0.46 | 1264.3 ± 0.9 | 1.995 ± 0.013
308.15 K, x1 = 0.214 | 819.892 ± 0.46 | 1289.5 ± 1 | 1.954 ± 0.013
308.15 K, x1 = 0.2602 | 824.133 ± 0.45 | 1307.8 ± 1 | 1.923 ± 0.013
308.15 K, x1 = 0.3283 | – | – | 1.866 ± 0.013
308.15 K, x1 = 0.3286 | 829.828 ± 0.45 | 1333.6 ± 1 | –
308.15 K, x1 = 0.3985 | 835.352 ± 0.45 | 1360 ± 1 | 1.798 ± 0.013
308.15 K, x1 = 0.5036 | 843.235 ± 0.45 | 1400.4 ± 1.1 | 1.697 ± 0.013
308.15 K, x1 = 0.5965 | 850.157 ± 0.45 | 1437.1 ± 1.1 | 1.601 ± 0.012
308.15 K, x1 = 0.7081 | 858.739 ± 0.45 | 1484.2 ± 1.2 | 1.471 ± 0.012
308.15 K, x1 = 0.7931 | 865.762 ± 0.46 | 1523 ± 1.2 | 1.377 ± 0.011
308.15 K, x1 = 0.8504 | 870.584 ± 0.46 | 1550.5 ± 1.3 | 1.314 ± 0.011
308.15 K, x1 = 0.8979 | 874.924 ± 0.46 | 1574.8 ± 1.3 | 1.25 ± 0.011
308.15 K, x1 = 0.936 | 878.628 ± 0.46 | 1595.3 ± 1.3 | 1.198 ± 0.011
313.15 K, x1 = 0.0528 | 799.876 ± 0.47 | 1210.7 ± 0.9 | –
313.15 K, x1 = 0.1135 | 806.088 ± 0.47 | 1233.6 ± 0.9 | –
313.15 K, x1 = 0.1488 | 809.548 ± 0.47 | 1247.2 ± 0.9 | –
313.15 K, x1 = 0.214 | 815.723 ± 0.46 | 1272.3 ± 1 | –
313.15 K, x1 = 0.2602 | 819.91 ± 0.46 | 1290.4 ± 1 | –
313.15 K, x1 = 0.3286 | 825.879 ± 0.46 | 1315.8 ± 1 | –
313.15 K, x1 = 0.3985 | 831.025 ± 0.46 | 1341.9 ± 1 | –
313.15 K, x1 = 0.5036 | 838.849 ± 0.46 | 1381.7 ± 1.1 | –
313.15 K, x1 = 0.5965 | 845.718 ± 0.46 | 1418.1 ± 1.1 | –
313.15 K, x1 = 0.7081 | 854.232 ± 0.46 | 1464.4 ± 1.2 | –
313.15 K, x1 = 0.7931 | 861.194 ± 0.46 | 1502.7 ± 1.2 | –
313.15 K, x1 = 0.8504 | 865.971 ± 0.46 | 1529.7 ± 1.3 | –
313.15 K, x1 = 0.8979 | 870.277 ± 0.46 | 1553.1 ± 1.3 | –
313.15 K, x1 = 0.936 | 873.95 ± 0.47 | 1573.7 ± 1.3 | –

Reference: the NIST ThermoML archive (doi:10.1021/je1012857)
